Measurements: patent publication US20210347662A1, “METHODS AND APPARATUS FOR CONTROLLING OR […] TIDE” (priority 2020, published 2021)

What was measured:
K. brevis [1] = experiment: Microscope slide droplet test of additives on living K. brevis; assay type: cell-based, Karenia brevis; conditions: microscopy; drop of Gulf of Mexico marine water with at least hundreds of living K. brevis organisms to start; a droplet of additive solution or about 1 to 0 mg solid added
K. brevis [2] = experiment: K. brevis cell count in test tubes of sea water after adding red tide inhibitors; assay type: cell-based, Karenia brevis; conditions: 10 ml Gulf of Mexico sea water, initial count at least 1 million K. brevis cells per liter; one drop of concentrated solution or 5 mg solid; counted after two minutes
Protocol: Experiments were performed to determine the K. brevis count with various red tide inhibitors.
A microscope with magnification up to 2500 times, was used along with a gridded Sedgewick-Rafter counting slide to record K. brevis cell counts. Testing was performed on Gulf of Mexico sea water containing K. brevis with an initial K. brevis cell count of at least 1 million K. brevis cells per liter. Test tubes contained 10 ml. each of this sea water, to which the following salts and other chemicals were added. For a concentrated solution of the additive, one drop is added and for solid additives, 5 mg is added. The test tubes contents containing the additives were gently mixed and then counts tabulated after two minutes.
Table 1 identifies the additives tested and the resultant cell count.

| Molecule | Experimental Results (K. brevis [1]) | Cell Count (K. brevis [2]) |
| --- | --- | --- |
| [Ca+2].[OH-].[OH-] [calcium hydroxide] | No living K. brevis |  |
| O=S(=O)([O-])[O-].[Cu+2] [Concentrated copper sulfate solution, copper sulfate] | No living K. brevis | None |
| CN(C)c1ccc2nc3ccc(=[N+](C)C)cc-3sc2c1 [Dilute methylene blue solution, methylene blue] | No living K. brevis | Very few |
| calcium sulfate [Concentrated calcium sulfate solution] | No living K. brevis | None |
| [O]=[Ca] [Solid calcium oxide, calcium oxide] |  | None |
| CN.Cl [methylammonium chloride] | No living K. brevis |  |
| [Cl-].[Na+] [Concentrated salt solution, sodium chloride] | No living K. brevis | None |
| O=S(=O)([O-])[O-].[Mg+2] [Concentrated magnesium sulfate solution, magnesium sulfate] | No living K. brevis | None |
| C[N+](C)(C)C.[Cl-] [tetamethylammonium chloride] | No living K. brevis |  |
